Reference: US20050113450A1, “Antibacterial agents” (priority 2002, published 2005)
Values after ≈ are worked out from the molar mass of the structure shown.

Each compound was assayed on SA 9218 (assay: MIC by standard agar dilution method). Settings: Mueller Hinton agar, 10^4 to 10^5 cells per spot, incubated overnight at 35° C., lowest concentration that inhibits visible growth.
Format: cell-based
Method in brief: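 MIC read after overnight 35 °C incubation as lowest drug level preventing visible growth. Inoculum of roughly 10^4–10^5 cells per spot (0.5 McFarland, 1:20 in TSB) applied to Mueller Hinton agar containing serial 2-fold compound dilutions.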

Row | SMILES | MIC | SA 9218 MIC
1 | O=C(Nc1ccc(-c2ccc(F)cc2F)cc1C(=O)O)c1cccc(S(=O)(=O)N2CCc3cc(Cl)ccc32)c1 [PHA-563281] | 1 mg/L (≈ 1.76 µM) | –
2 | Cc1ccc(-c2ccc(NC(=O)c3cccc(S(=O)(=O)N4CCc5cc(Cl)ccc54)c3)c(C(=O)O)c2)s1 [PHA-563282] | 1 mg/L (≈ 1.81 µM) | –
3 | CC(C)(C)c1ccc(-c2ccc(NC(=O)c3cccc(S(=O)(=O)N4CCc5cc(Cl)ccc54)c3)c(C(=O)O)c2)cc1 [PHA-563283] | 16 mg/L (≈ 27.2 µM) | –
4 | O=C(Nc1ccc(-c2cccc(C(F)(F)F)c2)cc1C(=O)O)c1cccc(S(=O)(=O)N2CCc3cc(Cl)ccc32)c1 [PHA-563284] | 2 mg/L (≈ 3.33 µM) | –
5 | O=C(Nc1ccc(-c2ccc(C(F)(F)F)cc2)cc1C(=O)O)c1cccc(S(=O)(=O)N2CCc3cc(Cl)ccc32)c1 [PHA-563285] | 2 mg/L (≈ 3.33 µM) | –
6 | O=C(Nc1ccc(-c2ccccn2)cc1C(=O)O)c1cccc(S(=O)(=O)N2CCc3cc(Cl)ccc32)c1 [PHA-563324] | > 128 mg/L | –
7 | COc1ccc(Oc2cccc(C(=O)Nc3ccc(C#N)cc3C(=O)O)c2)cc1 [PHA-564215] | 0.5 mg/L (≈ 1.29 µM) | –
8 | N#Cc1ccc(NC(=O)c2cccc(Oc3cccc([N+](=O)[O-])c3)c2)c(C(=O)O)c1 [PHA-564218] | 1 mg/L (≈ 2.48 µM) | –
9 | N#Cc1ccc(NC(=O)c2cccc(S(=O)(=O)N3CCCCC3)c2)c(C(=O)O)c1 [PHA-564750] | 0.25 mg/L (≈ 0.605 µM) | –
10 | O=C(Nc1ccc(Br)cc1C(=O)O)c1cccc(C(O)c2ccccc2)c1 (stereo not shown) [PHA-566947] | – | 0.5 mg/L
11 | O=C(Nc1ccc(Br)cc1C(=O)O)c1cccc(C(O)c2ccccc2)c1 (stereo not shown) [PHA-566948] | 1 mg/L (≈ 2.35 µM) | –
12 | O=C(O)c1cc([N+](=O)[O-])ccc1/C=C/c1cccc(S(=O)(=O)N2CCc3cc(Cl)ccc32)c1 [PHA-568196] | 1 mg/L (≈ 2.06 µM) | –
13 | O=C(O)c1ccc([N+](=O)[O-])cc1/C=C\c1cccc(S(=O)(=O)N2CCc3cc(Cl)ccc32)c1 [PHA-568197] | 16 mg/L (≈ 33 µM) | –
14 | Cc1ccccc1-c1ccc(NC(=O)c2cccc(S(=O)(=O)N3CCc4cc(Cl)ccc43)c2)c(C(=O)O)c1 [PHA-568205] | 2 mg/L (≈ 3.66 µM) | –
15 | O=C(Nc1ccc(-c2ccc(Cl)s2)cc1C(=O)O)c1cccc(S(=O)(=O)N2CCc3cc(Cl)ccc32)c1 [PHA-568206] | 2 mg/L (≈ 3.49 µM) | –
16 | O=C(Nc1ccc(Br)cc1C(=O)O)c1ccc(S(=O)(=O)N2CCCC2)cc1 [PHA-568376] | 16 mg/L (≈ 35.3 µM) | –
17 | O=C(Nc1ccc(Br)cc1C(=O)O)c1cccc(S(=O)(=O)N2CCCC2)c1 [PHA-568378] | 2 mg/L (≈ 4.41 µM) | –
18 | N#Cc1ccc(NC(=O)c2cccc(S(=O)(=O)N3CCOCC3)c2)c(C(=O)O)c1 [PHA-568420] | – | 0.5 mg/L
19 | COc1cccc2ccn(S(=O)(=O)c3cccc(C(=O)Nc4ccc(C#N)cc4C(=O)O)c3)c12 [PHA-568422] | 0.125 mg/L (≈ 0.263 µM) | –
20 | COc1ccc2ccn(S(=O)(=O)c3cccc(C(=O)Nc4ccc(C#N)cc4C(=O)O)c3)c2c1 [PHA-568424] | 1 mg/L (≈ 2.1 µM) | –
21 | N#Cc1ccc(NC(=O)c2cc(CCO)cc(S(=O)(=O)N3CCc4ccccc43)c2)c(C(=O)O)c1 [PHA-568425] | 8 mg/L (≈ 16.3 µM) | –
22 | N#Cc1ccc(NC(=O)c2cccc(S(=O)(=O)n3ccc4cc(F)ccc43)c2)c(C(=O)O)c1 [PHA-568461] | 0.125 mg/L (≈ 0.27 µM) | –
23 | COc1ncc(-c2ccc(NC(=O)c3cccc(S(=O)(=O)N4CCc5cc(Cl)ccc54)c3)c(C(=O)O)c2)c(OC)n1 [PHA-568906] | 8 mg/L (≈ 13.4 µM) | –
24 | N#Cc1ccc(NC(=O)c2ccc(C#Cc3ccccc3)cc2)c(C(=O)O)c1 [PHA-568907] | 8 mg/L (≈ 21.8 µM) | –
25 | Cl.N#Cc1ccc(NC(=O)c2cccc(SCc3ccncc3)c2)c(C(=O)O)c1 [PHA-569044A] | 0.5 mg/L | –
26 | N#Cc1ccc(NC(=O)c2cccc(SCc3ccncc3)c2)c(C(=O)O)c1 [PHA-569044] | 0.25 mg/L (≈ 0.642 µM) | –
27 | CC1CCCN1S(=O)(=O)c1cccc(C(=O)Nc2ccc(C#N)cc2C(=O)O)c1 (stereo not shown) [PHA-569064] | 1 mg/L (≈ 2.42 µM) | –
28 | CC1CCC(C)N1S(=O)(=O)c1cccc(C(=O)Nc2ccc(C#N)cc2C(=O)O)c1 (stereo not shown) [PHA-569077] | 1 mg/L (≈ 2.34 µM) | –

Row | SMILES | MIC | SA 9218 MIC
29 | N#Cc1ccc(/C=C/c2cccc(S(=O)(=O)N3CCc4cc(Cl)ccc43)c2)c(C(=O)O)c1 [PHA-569887] | 0.25 mg/L (≈ 0.538 µM) | –
30 | N#Cc1ccc(NC(=O)c2cccc(OCc3ccccc3)c2)c(C(=O)O)c1 [PHA-569974] | 1 mg/L (≈ 2.69 µM) | –
31 | Cc1noc(C)c1-c1ccc(NC(=O)c2cccc(S(=O)(=O)N3CCc4cc(Cl)ccc43)c2)c(C(=O)O)c1 [PHA-569977] | 16 mg/L (≈ 29 µM) | –
32 | N#Cc1ccc(NC(=O)c2cccc(C(=O)C3CCCC3)c2)c(C(=O)O)c1 [PHA-570042] | 2 mg/L (≈ 5.52 µM) | –
33 | O=C(Nc1ccc(Cl)cc1C(=O)O)c1cc(Br)cc(S(=O)(=O)N2CCc3ccccc32)c1 [PHA-570949] | 1 mg/L (≈ 1.87 µM) | –
34 | COc1cccc(C(=O)Nc2ccc(C#N)cc2C(=O)O)c1 [PHA-571151] | 8 mg/L (≈ 27 µM) | –
35 | COc1ccc(Br)c(C(=O)Nc2ccc(C#N)cc2C(=O)O)c1 [PHA-571153] | 64 mg/L (≈ 171 µM) | –
36 | N#Cc1ccc(NC(=O)c2cccc(Cl)c2)c(C(=O)O)c1 [PHA-571155] | 32 mg/L (≈ 106 µM) | –
37 | CN(C)c1ccc(C(=O)Nc2ccc(C#N)cc2C(=O)O)cc1 [PHA-571157] | 32 mg/L (≈ 103 µM) | –
38 | N#Cc1ccc(NC(=O)c2cccc(S(=O)(=O)N3CCc4ccccc43)c2)c(C(=O)O)c1 [PHA-571161] | > 128 mg/L | –
39 | CC(C)CN(CC(C)C)S(=O)(=O)c1cccc(C(=O)Nc2ccc(C#N)cc2C(=O)O)c1 [PHA-571164] | 8 mg/L (≈ 17.5 µM) | –
40 | N#Cc1ccc(NC(=O)c2cccc(S(=O)(=O)N3CCC3)c2)c(C(=O)O)c1 [PHA-571167] | 32 mg/L (≈ 83 µM) | –
41 | CN(CCc1ccccc1)S(=O)(=O)c1ccc(C(=O)Nc2ccc(C#N)cc2C(=O)O)cc1 [PHA-571169] | 32 mg/L (≈ 69 µM) | –
42 | N#Cc1ccc(NC(=O)c2cccc(S(=O)(=O)N3CCN(c4ncccn4)CC3)c2)c(C(=O)O)c1 [PHA-571170] | 64 mg/L (≈ 130 µM) | –
43 | CC(=O)c1ccc(N2CCN(S(=O)(=O)c3cccc(C(=O)Nc4ccc(C#N)cc4C(=O)O)c3)CC2)cc1 [PHA-571172] | 32 mg/L (≈ 60.1 µM) | –
44 | N#Cc1ccc(NC(=O)c2ccc(S(=O)(=O)N3CCCCCC3)cc2)c(C(=O)O)c1 [PHA-571174] | 64 mg/L (≈ 150 µM) | –
45 | CCN(CC)C(=O)C1CCCN(S(=O)(=O)c2cccc(C(=O)Nc3ccc(C#N)cc3C(=O)O)c2)C1 (stereo not shown) [PHA-571176] | 64 mg/L (≈ 125 µM) | –
46 | CC1CN(S(=O)(=O)c2ccc(C(=O)Nc3ccc(C#N)cc3C(=O)O)cc2)CC(C)O1 (stereo not shown) [PHA-571182] | 64 mg/L (≈ 144 µM) | –
47 | CC(C(O)c1ccccc1)N(C)S(=O)(=O)c1ccc(C(=O)Nc2ccc(C#N)cc2C(=O)O)cc1 (stereo not shown) [PHA-571183] | – | 32 mg/L
48 | CN(C1CCCCC1)S(=O)(=O)c1cccc(C(=O)Nc2ccc(C#N)cc2C(=O)O)c1 [PHA-571186] | 128 mg/L (≈ 290 µM) | –
49 | N#Cc1ccc(NC(=O)c2ccc(S(=O)(=O)N3CCC(C#N)(c4ccccc4)CC3)cc2)c(C(=O)O)c1 [PHA-571188] | 8 mg/L (≈ 15.5 µM) | –
50 | CCC1CCCCN1S(=O)(=O)c1ccc(C(=O)Nc2ccc(C#N)cc2C(=O)O)cc1 (stereo not shown) [PHA-571189] | 64 mg/L (≈ 145 µM) | –
51 | COc1cc2c(cc1OC)CN(S(=O)(=O)c1cccc(C(=O)Nc3ccc(C#N)cc3C(=O)O)c1)CC2 [PHA-571194] | 4 mg/L (≈ 7.67 µM) | –
52 | CN(CCC(O)c1ccccc1)S(=O)(=O)c1cccc(C(=O)Nc2ccc(C#N)cc2C(=O)O)c1 (stereo not shown) [PHA-571196] | 64 mg/L (≈ 130 µM) | –
53 | CCCCN(CC)S(=O)(=O)c1cccc(C(=O)Nc2ccc(C#N)cc2C(=O)O)c1 [PHA-571197] | 16 mg/L (≈ 37.3 µM) | –
54 | COc1cc2c(cc1OC)CN(S(=O)(=O)c1ccc(C(=O)Nc3ccc(C#N)cc3C(=O)O)cc1)CC2 [PHA-571198] | > 128 mg/L | –
55 | N#Cc1ccc(NC(=O)c2ccc(S(=O)(=O)N3CCN(c4ccc([N+](=O)[O-])cc4)CC3)cc2)c(C(=O)O)c1 [PHA-571199] | 64 mg/L (≈ 120 µM) | –
